The nature of the data set: Measurement of photostability of the cinnamate UV-B filter in emulsion formulas on PMMA plates under SUN TEST xenon lamp. To be noted: Formulas 9-11 (1-4% of Example 1) compared with control Formula 8. Type of data set: physicochemical.

`CCCCOC(=O)c1ccc(Nc2nc(Nc3ccc(C=C(C(=O)OCC(C)(C)C)C(=O)OCC(C)(C)C)cc3)nc(Nc3ccc(C=C(C(=O)OCC(C)(C)C)C(=O)OCC(C)(C)C)cc3)n2)cc1` [Example 1, 2,4-bis-(dineopentyl 4′-aminobenzalmalonate)-6-(butyl 4″-aminobenzoate)-s-triazine]: the “Photostability of the cinnamate ester in the presence of the compound” value was “improvement in the photostability of the cinnamate ester is clearly seen”.

Source of the values: patent publication US20080008669A1, “Photostable sunscreen compositions comprising cinnamate ester UV-B filters and s-triazine compounds” (L'OREAL, priority 2006, published 2008).
